Data published in paper PMC8164773 (European Journal of Medicinal Chemistry, 2021).

Key:
[1] = Solubility studies of bisulfite prodrugs in H2O; type: physicochemical; conditions: aqueous media, 25 °C
SARS-CoV-2 = type: cell-based; conditions: read-out: EC50 +CP

Row | SMILES | increase in molar solubility compared to GC376 [1] | EC50 (SARS-CoV-2) [nM]
1 | CC(C)C[C@H](NC(=O)OCc1ccccc1)C(=O)N[C@@H](C[C@@H]1CCNC1=O)C(O)S(=O)(=O)[O-].[K+] (some centres unmarked) [3a] | approximately 30% | 
2 | COc1cccc2[nH]c(C(=O)N[C@@H](CC3CC3)C(=O)N[C@H](C=O)C[C@@H]3CCNC3=O)cc12 [1k] |  | 270 ± 400
